Assay results from PubChem BioAssay AID2060484 (Molecular Pharmacology Branch, DTP, NCI, 2025).

Tested on: SUM149PT spheroids with HUVEC/MSC, viability
Test: Anticancer human tumor SUM149PT cell line growth inhibition [GQUAD];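 note: spheroids exposed to drugs for seven days before readout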;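 for viability, T/C: percent viability relative to DMSO vehicle control taken as 100%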
Settings: for IC50: curve of first compound; for viability, T/C: stronger effect = lower value
Summary of the method: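 Multi-cell-type spheroids of tumor cells with HUVEC and mesenchymal stem cells, treated with drug combinations. Concentrations descend in half-log steps from near clinical Cmax, or from 10 microM where Cmax is unknown; viability read-out.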

[1] = second compound 0.0316 µM, first compound 0.0316 µM
[2] = second compound 0.0316 µM, first compound 0.316 µM
[3] = second compound 0.1 µM, first compound 0.0316 µM
[4] = second compound 0.1 µM, first compound 0.316 µM
[5] = second compound 0.316 µM, first compound 0.0316 µM
[6] = second compound 0.316 µM, first compound 0.316 µM
[7] = second compound 1 µM, first compound 0.0316 µM
[8] = second compound 1 µM, first compound 0.316 µM
[9] = second compound 3.16 µM, first compound 0.0316 µM
[10] = second compound 3.16 µM, first compound 0.316 µM
[11] = second compound 10 µM, first compound 0.0316 µM
[12] = second compound 10 µM, first compound 0.316 µM
[13] = second compound 0.0316 µM, first compound 0.1 µM
[14] = second compound 0.0316 µM, first compound 1 µM
[15] = second compound 0.0316 µM, first compound 3.16 µM
[16] = second compound 0.0316 µM, first compound 10 µM
[17] = second compound 0.1 µM, first compound 0.1 µM
[18] = second compound 0.1 µM, first compound 1 µM
[19] = second compound 0.1 µM, first compound 3.16 µM
[20] = second compound 0.1 µM, first compound 10 µM
[21] = second compound 0.316 µM, first compound 0.1 µM
[22] = second compound 0.316 µM, first compound 1 µM
[23] = second compound 0.316 µM, first compound 3.16 µM
[24] = second compound 0.316 µM, first compound 10 µM
[25] = second compound 1 µM, first compound 0.1 µM
[26] = second compound 1 µM, first compound 1 µM
[27] = second compound 1 µM, first compound 3.16 µM
[28] = second compound 1 µM, first compound 10 µM
[29] = second compound 3.16 µM, first compound 0.1 µM
[30] = second compound 3.16 µM, first compound 1 µM
[31] = second compound 3.16 µM, first compound 3.16 µM
[32] = second compound 3.16 µM, first compound 10 µM
[33] = second compound 10 µM, first compound 0.1 µM
[34] = second compound 10 µM, first compound 1 µM
[35] = second compound 10 µM, first compound 3.16 µM
[36] = second compound 10 µM, first compound 10 µM

## Cc1[nH]c2ccccc2c1CCNCc1ccc(/C=C/C(=O)NO)cc1 + Cc1cnc(CNC(=O)c2c(=O)c3ccc(N4CCCN(C)CC4)nc3n3c2sc2ccccc23)cn1
Second compound 0.0316 µM
  IC50: 0.131 µM
Second compound 0.1 µM
  IC50: 0.1 µM
Second compound 0.316 µM
  IC50: 0.056 µM
Second compound 1 µM
  IC50: < 0.000999 µM
Second compound 3.16 µM
  IC50: < 0.000999 µM
Second compound 10 µM
  IC50: < 0.000999 µM
Second compound 0.0316 µM, first compound 0.000999 µM
  viability, T/C: 106%
Second compound 0.0316 µM, first compound 0.00316 µM
  viability, T/C: 86.2%
Second compound 0.0316 µM, first compound 0.00999 µM
  viability, T/C: 90%
[1]
  viability, T/C: 89.5%
Second compound 0.0316 µM, first compound 0.0999 µM
  viability, T/C: 56%
[2]
  viability, T/C: 29.8%
Second compound 0.1 µM, first compound 0.000999 µM
  viability, T/C: 66.2%
Second compound 0.1 µM, first compound 0.00316 µM
  viability, T/C: 62.1%
Second compound 0.1 µM, first compound 0.00999 µM
  viability, T/C: 67.7%
[3]
  viability, T/C: 65.2%
Second compound 0.1 µM, first compound 0.0999 µM
  viability, T/C: 50.1%
[4]
  viability, T/C: 26.9%
Second compound 0.316 µM, first compound 0.000999 µM
  viability, T/C: 54.2%
Second compound 0.316 µM, first compound 0.00316 µM
  viability, T/C: 55.2%
Second compound 0.316 µM, first compound 0.00999 µM
  viability, T/C: 55.3%
[5]
  viability, T/C: 54.9%
Second compound 0.316 µM, first compound 0.0999 µM
  viability, T/C: 45.7%
[6]
  viability, T/C: 25%
Second compound 1 µM, first compound 0.000999 µM
  viability, T/C: 51.1%
Second compound 1 µM, first compound 0.00316 µM
  viability, T/C: 43.2%
Second compound 1 µM, first compound 0.00999 µM
  viability, T/C: 48.5%
[7]
  viability, T/C: 47.7%
Second compound 1 µM, first compound 0.0999 µM
  viability, T/C: 46.2%
[8]
  viability, T/C: 20.2%
Second compound 3.16 µM, first compound 0.000999 µM
  viability, T/C: 39.1%
Second compound 3.16 µM, first compound 0.00316 µM
  viability, T/C: 40.3%
Second compound 3.16 µM, first compound 0.00999 µM
  viability, T/C: 39.1%
[9]
  viability, T/C: 42.6%
Second compound 3.16 µM, first compound 0.0999 µM
  viability, T/C: 37.9%
[10]
  viability, T/C: 17.8%
Second compound 10 µM, first compound 0.000999 µM
  viability, T/C: 0.24%
Second compound 10 µM, first compound 0.00316 µM
  viability, T/C: 1.67%
Second compound 10 µM, first compound 0.00999 µM
  viability, T/C: 9.84%
[11]
  viability, T/C: 10.1%
Second compound 10 µM, first compound 0.0999 µM
  viability, T/C: 2.55%
[12]
  viability, T/C: 2%

## C#Cc1c(F)ccc2cc(O)cc(-c3ncc4c(N5CC6CCC(C5)N6)nc(OCC56CCCN5CC(F)C6)nc4c3F)c12 (stereo unspecified) + Cc1cnc(CNC(=O)c2c(=O)c3ccc(N4CCCN(C)CC4)nc3n3c2sc2ccccc23)cn1
Second compound 0.0316 µM
  IC50: 0.545 µM
Second compound 0.1 µM
  IC50: 0.243 µM
Second compound 0.316 µM
  IC50: 0.0422 µM
Second compound 1 µM
  IC50: < 0.0316 µM
Second compound 3.16 µM
  IC50: < 0.0316 µM
Second compound 10 µM
  IC50: < 0.0316 µM
[1]
  viability, T/C: 90.1%
[13]
  viability, T/C: 65.5%
[2]
  viability, T/C: 66.2%
[14]
  viability, T/C: 35.1%
[15]
  viability, T/C: 36.6%
[16]
  viability, T/C: 29%
[3]
  viability, T/C: 51.6%
[17]
  viability, T/C: 61.4%
[4]
  viability, T/C: 45.2%
[18]
  viability, T/C: 38.9%
[19]
  viability, T/C: 30.7%
[20]
  viability, T/C: 25.5%
[5]
  viability, T/C: 48.6%
[21]
  viability, T/C: 52.2%
[6]
  viability, T/C: 37.9%
[22]
  viability, T/C: 34.1%
[23]
  viability, T/C: 28.1%
[24]
  viability, T/C: 22.9%
[7]
  viability, T/C: 34.1%
[25]
  viability, T/C: 38.6%
[8]
  viability, T/C: 33.4%
[26]
  viability, T/C: 27.1%
[27]
  viability, T/C: 24.2%
[28]
  viability, T/C: 20.1%
[9]
  viability, T/C: 35.5%
[29]
  viability, T/C: 32.1%
[10]
  viability, T/C: 31.4%
[30]
  viability, T/C: 25.6%
[31]
  viability, T/C: 23.3%
[32]
  viability, T/C: 19.6%
[11]
  viability, T/C: 0.13%
[33]
  viability, T/C: 2.68%
[12]
  viability, T/C: 11.3%
[34]
  viability, T/C: 0.63%
[35]
  viability, T/C: 2.15%
[36]
  viability, T/C: 0.92%

## CC1COCCN1c1cc(C2(S(C)(=N)=O)CC2)nc(-c2ccnc3[nH]ccc23)n1 (stereo unspecified) + CN(C)c1ccc(Nc2c3ccc(NC(=O)CCN4CCCC4)cc3nc3cc(NC(=O)CCN4CCCC4)ccc23)cc1
Second compound 0.0316 µM
  IC50: 2.65 µM
Second compound 0.1 µM
  IC50: 2.76 µM
Second compound 0.316 µM
  IC50: 2.31 µM
Second compound 1 µM
  IC50: 2.23 µM
Second compound 3.16 µM
  IC50: 1.9 µM
Second compound 10 µM
  IC50: 1.92 µM
[1]
  viability, T/C: 106%
[13]
  viability, T/C: 91.5%
[2]
  viability, T/C: 97.2%
[14]
  viability, T/C: 80.9%
[15]
  viability, T/C: 44.2%
[16]
  viability, T/C: 29.4%
[3]
  viability, T/C: 97.8%
[17]
  viability, T/C: 103%
[4]
  viability, T/C: 81.5%
[18]
  viability, T/C: 89.4%
[19]
  viability, T/C: 44.7%
[20]
  viability, T/C: 25.2%
[5]
  viability, T/C: 90.3%
[21]
  viability, T/C: 90.4%
[6]
  viability, T/C: 83.2%
[22]
  viability, T/C: 74.7%
[23]
  viability, T/C: 40.4%
[24]
  viability, T/C: 29.6%
[7]
  viability, T/C: 90.4%
[25]
  viability, T/C: 82.7%
[8]
  viability, T/C: 77.5%
[26]
  viability, T/C: 69.5%
[27]
  viability, T/C: 41.1%
[28]
  viability, T/C: 22.5%
[9]
  viability, T/C: 84.2%
[29]
  viability, T/C: 90.7%
[10]
  viability, T/C: 86.1%
[30]
  viability, T/C: 69.7%
[31]
  viability, T/C: 34.3%
[32]
  viability, T/C: 23.4%
[11]
  viability, T/C: 95.8%
[33]
  viability, T/C: 81.4%
[12]
  viability, T/C: 88.6%
[34]
  viability, T/C: 67%
[35]
  viability, T/C: 36.9%
[36]
  viability, T/C: 24.9%
